The results in this text go back to US8778966B2, “Quinolinone derivatives as PARP and tank inhibitors” (Janssen Pharmaceutica, NV, priority 2007, dated 2014).

One test concerns the target T1, Human PARP-1 enzyme (Homo sapiens, UniProt P09874).
T1 construct: purchased Trevigen
In words: In vitro Scintillation Proximity Assay (SPA) for PARP-1 inhibitory activity. The class given is biochemical. As to conditions: read-out: in vitro SPA assay PARP-1 pIC50 (converted). The method, boiled down: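 SPA assay: nicked-DNA-activated PARP-1 (0.1–0.2 μg/ml) ADP-ribosylates biotinylated histones (2 μg/ml) using [3H]-NAD+, 20 min at RT in Tris pH 8/DTT/MgCl2, stopped with 2 mM NAD+. Blank-subtracted cpm expressed as % control; IC50 by linear interpolation, reported as pIC50 (10−5 to 3×10−9 M tested).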
(In general: In a scintillation proximity assay essentially only radioactivity close to the scintillant gives light.)

For another test, the system named is HCT116 cells. Briefly: Mitotic arrest assay on HCT116 cells (phospho-histone H3 Ser10). The settings on record: Homo sapiens, HCT-116, HCT116 cells; lowest active dose; read-out: Mitotic arrest HCT116 LAD (converted). The format is cell-based, human. The method in brief: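 Seeded overnight, then compound-treated 6 h at 37 °C (≤0.1% DMSO); fixed, stained with Alexa Fluor 488 anti-phospho-H3 (Ser10) plus Hoechst 33342, imaged on InCell Analyzer 1000. Blank-subtracted signal divided by SD (sigma), triplicate; value is lowest dose giving sigma >5 (LAD).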

T1 sequence (P09874 whole entry): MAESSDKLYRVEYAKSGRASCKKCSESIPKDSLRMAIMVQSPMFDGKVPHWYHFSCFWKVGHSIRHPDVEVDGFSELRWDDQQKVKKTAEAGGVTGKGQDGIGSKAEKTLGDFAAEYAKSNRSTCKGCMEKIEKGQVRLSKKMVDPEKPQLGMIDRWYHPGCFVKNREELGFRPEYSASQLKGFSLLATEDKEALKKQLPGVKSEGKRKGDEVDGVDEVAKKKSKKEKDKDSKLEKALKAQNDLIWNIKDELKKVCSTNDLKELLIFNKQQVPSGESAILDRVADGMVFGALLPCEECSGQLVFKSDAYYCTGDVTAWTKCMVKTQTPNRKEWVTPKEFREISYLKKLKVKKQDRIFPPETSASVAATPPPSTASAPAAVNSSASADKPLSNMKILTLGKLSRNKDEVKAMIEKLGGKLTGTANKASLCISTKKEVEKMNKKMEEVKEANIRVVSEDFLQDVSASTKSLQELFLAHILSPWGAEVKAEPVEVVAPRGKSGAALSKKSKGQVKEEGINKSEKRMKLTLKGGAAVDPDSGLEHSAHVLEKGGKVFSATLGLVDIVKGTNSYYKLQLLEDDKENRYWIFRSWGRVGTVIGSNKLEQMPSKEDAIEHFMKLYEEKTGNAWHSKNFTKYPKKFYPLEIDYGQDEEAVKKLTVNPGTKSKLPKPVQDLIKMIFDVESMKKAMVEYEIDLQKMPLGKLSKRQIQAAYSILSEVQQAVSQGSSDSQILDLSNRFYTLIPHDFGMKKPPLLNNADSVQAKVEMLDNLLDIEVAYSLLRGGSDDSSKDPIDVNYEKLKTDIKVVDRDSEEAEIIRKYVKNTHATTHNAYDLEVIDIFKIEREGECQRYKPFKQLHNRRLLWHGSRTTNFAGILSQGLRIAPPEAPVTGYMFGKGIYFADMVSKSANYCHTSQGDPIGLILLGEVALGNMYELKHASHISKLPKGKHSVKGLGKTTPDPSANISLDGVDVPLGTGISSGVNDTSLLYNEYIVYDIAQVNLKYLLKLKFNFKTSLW

As to `CCc1cc2ccc(C(C)(C#N)Cc3nc(C)cc(C)n3)cc2[nH]c1=O` (stereo not shown) [Compound 368], the IC50 at Human PARP-1 enzyme is 0.316 µM. For the same compound, in the test on HCT116 cells, the minimal effective concentration is 1 µM.
The matching figures for `CCc1cc2cc(OCCOC)c(C(C)(C#N)Cc3cccc(C#N)c3)cc2[nH]c1=O` (stereo not shown) [Compound 182]: 0.158 µM and 10 µM.
Taken in the same sequence, the figures for `Cc1cc2ccc(C(C)(C#N)Cc3cccc(Cl)c3)cc2[nH]c1=O` (stereo not shown) [Compound 37] were 2 µM and 0.1 µM.
Take `Cc1cc2ccc([C@@](C)(C#N)Cc3cccc(C#N)c3)cc2[nH]c1=O` [Compound 35]: at Human PARP-1 enzyme, the IC50 was 0.501 µM. Moreover, the minimal effective concentration in the test with HCT116 cells is 3.16 µM.
The matching figures for `CCc1cc2ccc(C(C)(C#N)Cc3cccc(CN)c3)cc2[nH]c1=O` (stereo not shown) [Compound 290]: 0.0501 µM and 0.3 µM.
Taken in the same sequence, the figures for `CCc1cc2ccc(C(C)(C#N)Cc3nccc(OC)n3)cc2[nH]c1=O` (stereo not shown) [Compound 360] were 0.1 µM and 1 µM.
Taken in the same sequence, the figures for `CCc1cc2ccc(C(C)(C#N)CN(C)Cc3ccccc3)cc2[nH]c1=O` (stereo not shown) [Compound 189] were 0.398 µM and 1 µM.
In the case of `CCc1cc2ccc(C(C)(C#N)Cc3cc(Cl)nc(Cl)c3)cc2[nH]c1=O` (stereo not shown) [Compound 372], the IC50 on Human PARP-1 enzyme was 0.1 µM. Also, the minimal effective concentration with HCT116 cells was 0.1 µM.
